Source: ChEMBL document CHEMBL4308841, “Synthesis, in vitro antiproliferative activity, and kinase inhibitory effects of pyrazole-containing diarylureas and diarylamides” (Eur J Med Chem, 2018)
pIC50: −log10 of the molar value.

What was measured:
NCI-H522 = assay: Growth inhibition of human NCI-H522 cells assessed as cell growth at 100 uM incubated for 48 hrs by sulforhodamine B assay relative to control; type: functional; details: NCI-H522, 48 h, read-out: Activity
OVCAR-8 = assay: Growth inhibition of human OVCAR8 cells assessed as cell growth at 1 uM incubated for 48 hrs by sulforhodamine B assay relative to control; type: functional; details: OVCAR-8, 48 h, read-out: Activity
MDA-MB-468 = assay: Growth inhibition of human MDA-MB-468 cells assessed as cell growth at 100 uM incubated for 48 hrs by sulforhodamine B assay relative to control; type: functional; details: MDA-MB-468, 48 h, read-out: Activity
SK-MEL-5 [1] = assay: Growth inhibition of human SK-MEL-5 cells assessed as cell growth at 1 uM incubated for 48 hrs by sulforhodamine B assay relative to control; type: functional; details: SK-MEL-5, 48 h, read-out: Activity
HCT-15 [2] = assay: Growth inhibition of human HCT15 cells incubated for 48 hrs by sulforhodamine B assay; type: functional, cell-based; details: HCT-15, 48 h
OVCAR-4 = assay: Growth inhibition of human OVCAR4 cells assessed as cell growth at 1 uM incubated for 48 hrs by sulforhodamine B assay relative to control; type: functional; details: OVCAR-4, 48 h, read-out: Activity
SN12C [3] = assay: Growth inhibition of human SN12C cells assessed as cell growth at 0.1 uM incubated for 48 hrs by sulforhodamine B assay relative to control; type: functional; details: read-out: Activity
SF-268 = assay: Growth inhibition of human SF268 cells assessed as cell growth at 0.01 uM incubated for 48 hrs by sulforhodamine B assay relative to control; type: functional; details: SF-268, 48 h, read-out: Activity
SN12C [4] = assay: Growth inhibition of human SN12C cells assessed as cell growth at 100 uM incubated for 48 hrs by sulforhodamine B assay relative to control; type: functional; details: read-out: Activity
LOX IMVI = assay: Growth inhibition of human LOXIMVI cells assessed as cell growth at 0.1 uM incubated for 48 hrs by sulforhodamine B assay relative to control; type: functional; details: read-out: Activity
COLO 205 = assay: Growth inhibition of human COLO205 cells incubated for 48 hrs by sulforhodamine B assay; type: functional, cell-based; details: COLO 205, 48 h
NCI-H23 = assay: Growth inhibition of human NCI-H23 cells assessed as cell growth at 1 uM incubated for 48 hrs by sulforhodamine B assay relative to control; type: functional; details: NCI-H23, 48 h, read-out: Activity
PC-3 = assay: Growth inhibition of human PC3 cells assessed as cell growth at 1 uM incubated for 48 hrs by sulforhodamine B assay relative to control; type: functional; details: PC-3, 48 h, read-out: Activity
Malme-3M = assay: Growth inhibition of human MALME-3M cells incubated for 48 hrs by sulforhodamine B assay; type: functional, cell-based
OVCAR-5 [5] = assay: Growth inhibition of human OVCAR5 cells assessed as cell growth at 100 uM incubated for 48 hrs by sulforhodamine B assay relative to control; type: functional; details: OVCAR-5, 48 h, read-out: Activity
UO-31 = assay: Growth inhibition of human UO31 cells assessed as cell growth at 0.1 uM incubated for 48 hrs by sulforhodamine B assay relative to control; type: functional; details: UO-31, 48 h, read-out: Activity
UACC-62 [6] = assay: Growth inhibition of human UACC62 cells incubated for 48 hrs by sulforhodamine B assay; type: functional, cell-based; details: UACC-62, 48 h
M14 = assay: Growth inhibition of human M14 cells assessed as cell growth at 1 uM incubated for 48 hrs by sulforhodamine B assay relative to control; type: functional; details: M14, 48 h, read-out: Activity
MOLT-4 = assay: Growth inhibition of human MOLT4 cells assessed as cell growth at 0.01 uM incubated for 48 hrs by sulforhodamine B assay relative to control; type: functional; details: MOLT-4, 48 h, read-out: Activity
SK-MEL-5 [7] = assay: Growth inhibition of human SK-MEL-5 cells assessed as cell growth at 0.01 uM incubated for 48 hrs by sulforhodamine B assay relative to control; type: functional; details: SK-MEL-5, 48 h, read-out: Activity
SK-MEL-5 [8] = assay: Growth inhibition of human SK-MEL-5 cells assessed as cell growth at 0.1 uM incubated for 48 hrs by sulforhodamine B assay relative to control; type: functional; details: SK-MEL-5, 48 h, read-out: Activity
A498 [9] = assay: Growth inhibition of human A498 cells assessed as cell growth at 0.1 uM incubated for 48 hrs by sulforhodamine B assay relative to control; type: functional; details: A498, 48 h, read-out: Activity
ACHN = assay: Growth inhibition of human ACHN cells incubated for 48 hrs by sulforhodamine B assay; type: functional, cell-based
HCT-15 [10] = assay: Growth inhibition of human HCT15 cells assessed as cell growth at 1 uM incubated for 48 hrs by sulforhodamine B assay relative to control; type: functional; details: HCT-15, 48 h, read-out: Activity
A498 [11] = assay: Growth inhibition of human A498 cells assessed as cell growth at 1 uM incubated for 48 hrs by sulforhodamine B assay relative to control; type: functional; details: A498, 48 h, read-out: Activity
UACC-62 [12] = assay: Growth inhibition of human UACC62 cells assessed as cell growth at 0.1 uM incubated for 48 hrs by sulforhodamine B assay relative to control; type: functional; details: UACC-62, 48 h, read-out: Activity
RPMI-8226 = assay: Growth inhibition of human RPMI8226 cells assessed as cell growth at 1 uM incubated for 48 hrs by sulforhodamine B assay relative to control; type: functional; details: RPMI-8226, 48 h, read-out: Activity
CCRF-CEM = assay: Growth inhibition of human CCRF-CEM cells assessed as cell growth at 100 uM incubated for 48 hrs by sulforhodamine B assay relative to control; type: functional; details: read-out: Activity
SK-MEL-5 [13] = assay: Growth inhibition of human SK-MEL-5 cells incubated for 48 hrs by sulforhodamine B assay; type: functional, cell-based; details: SK-MEL-5, 48 h
OVCAR-5 [14] = assay: Growth inhibition of human OVCAR5 cells assessed as cell growth at 0.01 uM incubated for 48 hrs by sulforhodamine B assay relative to control; type: functional; details: OVCAR-5, 48 h, read-out: Activity
[15] = read-out: LC50 (the source's name)
[16] = read-out: pLC50 (the source's name) (converted)

`COc1cc(Cl)cc(-c2nn(-c3cccc(NC(=O)c4cccc(C(F)(F)F)c4)c3)cc2-c2ccncc2)c1` was tested, and the growth at 100 µM (NCI-H522) was 18%, the growth at 1 µM (OVCAR-8) was 93% and the growth at 100 µM (MDA-MB-468) was 28%. For the same molecule, the growth at 1 µM (SK-MEL-5 [1]) was 57%, the GI50 (HCT-15 [2]; read-out: GI50) was 3.36 µM and the CC50 (HCT-15 [2]; [15]) was > 100 µM. For the same molecule, the TGI (HCT-15 [2]; read-out: TGI) was > 100 µM, the GI50 (HCT-15 [2]; read-out: pGI50 (converted)) was 3.31 µM and the CC50 (HCT-15 [2]; [16]) was > 100 µM. For the same molecule, the TGI (HCT-15 [2]; read-out: pTGI (converted)) was > 100 µM, the growth at 1 µM (OVCAR-4) was 97% and the growth at 0.1 µM (SN12C [3]) was 99%. The growth at 0.01 µM (SF-268) was 101%, the growth at 100 µM (SN12C [4]) was 52% and the growth at 0.1 µM (LOX IMVI) was 95%. For the same molecule, the GI50 (COLO 205; read-out: GI50) was 3.37 µM, the CC50 (COLO 205; [15]) was > 100 µM and the TGI (COLO 205; read-out: TGI) was > 100 µM. For the same molecule, the GI50 (COLO 205; read-out: pGI50 (converted)) was 33.9 µM, the CC50 (COLO 205; [16]) was > 100 µM and the TGI (COLO 205; read-out: pTGI (converted)) was > 100 µM. For the same molecule, the growth at 1 µM (NCI-H23) was 94%, the growth at 1 µM (PC-3) was 73% and the GI50 (Malme-3M; read-out: GI50) was > 100 µM. For the same molecule, the CC50 (Malme-3M; [15]) was > 100 µM, the TGI (Malme-3M; read-out: TGI) was > 100 µM and the GI50 (Malme-3M; read-out: pGI50 (converted)) was > 100 µM. For the same molecule, the CC50 (Malme-3M; [16]) was > 100 µM, the TGI (Malme-3M; read-out: pTGI (converted)) was > 100 µM and the growth at 100 µM (OVCAR-5 [5]) was 59%. For the same molecule, the growth at 0.1 µM (UO-31) was 88%, the pIC50 (UACC-62 [6]) was 5.09 and the GI50 (UACC-62 [6]; read-out: GI50) was 0.04 µM. For the same molecule, the CC50 (UACC-62 [6]; [15]) was > 100 µM, the TGI (UACC-62 [6]; read-out: TGI) was > 100 µM and the GI50 (UACC-62 [6]; read-out: pGI50 (converted)) was 8.13 µM. For the same molecule, the CC50 (UACC-62 [6]; [16]) was > 100 µM, the TGI (UACC-62 [6]; read-out: pTGI (converted)) was > 100 µM and the growth at 1 µM (M14) was 83%. It also gave a growth at 0.01 µM (MOLT-4) of 91%, a growth at 0.01 µM (SK-MEL-5 [7]) of 97% and a growth at 0.1 µM (SK-MEL-5 [8]) of 95%. The growth at 0.1 µM (A498 [9]) was 52%, the GI50 (ACHN; read-out: GI50) was 7.21 µM and the CC50 (ACHN; [15]) was > 100 µM. For the same molecule, the TGI (ACHN; read-out: TGI) was > 100 µM, the GI50 (ACHN; read-out: pGI50 (converted)) was 7.24 µM and the CC50 (ACHN; [16]) was > 100 µM. For the same molecule, the TGI (ACHN; read-out: pTGI (converted)) was > 100 µM, the growth at 1 µM (HCT-15 [10]) was 71% and the growth at 1 µM (A498 [11]) was 51%. The growth at 0.1 µM (UACC-62 [12]) was 94%, the growth at 1 µM (RPMI-8226) was 79% and the growth at 100 µM (CCRF-CEM) was 32%. For the same molecule, the GI50 (SK-MEL-5 [13]; read-out: GI50) was 5.43 µM, the CC50 (SK-MEL-5 [13]; [15]) was > 100 µM and the TGI (SK-MEL-5 [13]; read-out: TGI) was > 100 µM. The GI50 (SK-MEL-5 [13]; read-out: pGI50 (converted)) was 5.37 µM, the CC50 (SK-MEL-5 [13]; [16]) was > 100 µM and the TGI (SK-MEL-5 [13]; read-out: pTGI (converted)) was > 100 µM. For the same molecule, the growth at 0.01 µM (OVCAR-5 [14]) was 58%.
